Measured values published in ChEMBL document CHEMBL4828775, “Antimicrobial and Cytotoxic Angucyclic Quinones from Actinomadura miaoliensis” (J Nat Prod, 2021).
Values after ≈ are worked out from the molar mass of the structure shown.

Tests used:
[1] = system: Acinetobacter baumannii; assay: Antibacterial activity against Acinetobacter baumannii assessed as inhibition of bacterial growth by CLSI based microdilution method; assay type: functional
[2] = system: NCI-H187; assay: Cytotoxicity against human NCI-H187 cells assessed as reduction in cell viability by resazurin microplate assay; assay type: functional, cell-based
[3] = system: Plasmodium falciparum; assay: Antimalarial activity against Plasmodium falciparum K1 assessed as inhibition of parasite growth by microculture radioisotope technique; assay type: functional, organism-based
[4] = system: Alternaria brassicicola; assay: Antifungal activity against Alternaria brassicicola assessed as inhibition of fungal growth by CLSI based microdilution method; assay type: functional
[5] = system: Staphylococcus aureus; assay: Antibacterial activity against Staphylococcus aureus assessed as inhibition of bacterial growth by CLSI based microdilution method; assay type: functional
[6] = system: Vero; assay: Cytotoxicity against African green monkey Vero cells assessed as reduction in cell viability by resazurin microplate assay; assay type: cell-based; conditions: Chlorocebus sabaeus
[7] = system: Curvularia lunata; assay: Antifungal activity against Curvularia lunata assessed as inhibition of fungal growth by CLSI based microdilution method; assay type: functional
[8] = system: MCF7; assay: Cytotoxicity against human MCF7 cells assessed as reduction in cell viability by resazurin microplate assay; assay type: functional, cell-based
[9] = system: Mycobacterium tuberculosis; assay: Antitubercular activity against Mycobacterium tuberculosis H37Ra assessed as inhibition of bacterial growth by green fluorescent protein based method; assay type: functional

SMILES	MIC [1] [µM]	IC50 [2] [µM]	IC50 [3] [µM]	MIC [4] [µM]	MIC [5] [µM]	IC50 [6] [µM]	MIC [7] [µM]	IC50 [8] [µM]	MIC [9] [µM]
CC1=CC(=O)[C@@H]2[C@H]3[C@H](CC[C@]2(O)C1)C(=O)c1c(O)cccc1[C@@H]3O	> 150	> 150	28.3	> 150	> 150	147	> 150	> 150	9.5 (≈ 3.12 µg/mL)
CC1=CC(=O)[C@@H]2C3=C(CC[C@]2(O)C1)C(=O)c1c(O)cccc1C3=O	> 150	2.2	2.2	> 150	> 150	1.8	> 150	2.2	0.6 (≈ 0.195 µg/mL)
CC1=C[C@@H](O)[C@H]2[C@](O)(CC[C@]3(O)C(=O)c4c(O)cccc4[C@H](O)[C@@]23O)C1	> 138	> 138	> 28	> 138	> 138	> 138	> 138	> 138	138 (≈ 50 µg/mL)
Cc1ccc2c3c(ccc2c1)C(=O)c1c(O)cccc1C3=O	> 150	83.3	> 35	> 150	> 150	35.4	> 150	55.3	10.9 (≈ 3.14 µg/mL)
CC1=C[C@@H]2O[C@]34CC[C@](O)(C1)[C@H]2[C@]3(O)[C@@H](O)c1cccc(O)c1C4=O	> 145	> 145	> 28	> 145	> 145	> 145	> 145	> 145	145 (≈ 50 µg/mL)
Cc1cc(O)c2c(c1)CCC1=C2C(=O)c2cccc(O)c2C1=O	> 150	3	2.6	> 150	> 150	1.4	> 150	1.1	0.3 (≈ 0.0919 µg/mL)
CC1=C[C@@H](O)[C@@H]2C3=C(CC[C@]2(O)C1)C(=O)c1c(O)cccc1C3=O	> 150	2.3	2.5	> 150	> 150	1.1	> 150	3.4	2.4 (≈ 0.783 µg/mL)
C[C@@H]1[C@H](O)[C@@H](C)/C=C/C=C/C=C/C=C/C=C/C=C/C=C/[C@H](O[C@@H]2O[C@H](C)[C@@H](O)[C@H](N)[C@@H]2O)C[C@@H]2O[C@](O)(C[C@@H](O)C[C@@H](O)[C@H](O)CC[C@@H](O)C[C@@H](O)CC(=O)O[C@H]1C)C[C@H](O)[C@H]2C(=O)O [AMPHOTERICIN B]	–	–	–	0.8 (≈ 0.739 µg/mL)	–	–	1.7 (≈ 1.57 µg/mL)	–	–
C[C@H]1[C@@H](O)O[C@@H]2O[C@@]3(C)CC[C@H]4[C@H](C)CC[C@@H]1[C@@]24OO3 [ARTENIMOL]	–	–	0.002	–	–	–	–	–	–
Cc1c2ccncc2c(C)c2c1[nH]c1ccccc12 [ELLIPTECINE]	–	13.7	–	–	–	4.5	–	–	–
CC[C@H]1OC(=O)[C@H](C)[C@@H](O[C@H]2C[C@@](C)(OC)[C@@H](O)[C@H](C)O2)[C@H](C)[C@@H](O[C@@H]2O[C@H](C)C[C@H](N(C)C)[C@H]2O)[C@](C)(O)C[C@@H](C)C(=O)[C@H](C)[C@@H](O)[C@]1(C)O [ERYTHROMYCIN]	8.5 (≈ 6.24 µg/mL)	–	–	–	–	–	–	–	–
NNC(=O)c1ccncc1 [ISONIAZID]	–	–	–	–	–	–	–	–	0.5 (≈ 0.0686 µg/mL)
CO[C@H]1/C=C/O[C@@]2(C)Oc3c(C)c(O)c4c(O)c(c(/C=N/N5CCN(C)CC5)c(O)c4c3C2=O)NC(=O)/C(C)=C\C=C\[C@H](C)[C@H](O)[C@@H](C)[C@@H](O)[C@@H](C)[C@H](OC(C)=O)[C@@H]1C [RIFAMPIN]	3.8 (≈ 3.13 µg/mL)	–	–	–	1.9 (≈ 1.56 µg/mL)	–	–	–	0.006 (≈ 0.00494 µg/mL)
Cc1cc(O)c2c3c(ccc2c1)C(=O)c1c(O)cccc1C3=O [TETRANGULOL]	> 150	17.1	5.9	> 150	> 150	4.4	> 150	18	2.6 (≈ 0.791 µg/mL)
CN[C@H](CC(C)C)C(=O)N[C@H]1C(=O)N[C@@H](CC(N)=O)C(=O)N[C@H]2C(=O)N[C@H]3C(=O)N[C@H](C(=O)N[C@H](C(=O)O)c4cc(O)cc(O)c4-c4cc3ccc4O)[C@H](O)c3ccc(c(Cl)c3)Oc3cc2cc(c3O[C@@H]2O[C@H](CO)[C@@H](O)[C@H](O)[C@H]2O[C@H]2C[C@](C)(N)[C@H](O)[C@H](C)O2)Oc2ccc(cc2Cl)[C@H]1O [VANCOMYCIN]	–	–	–	–	0.3 (≈ 0.435 µg/mL)	–	–	–	–
